Results published in the supplement of paper PMC10307832.

Columns and labels:
Test in all cases: relative viability (nuclei count vs DMSO), 5 days (fraction); higher = more cells survive
[1] = compound: CC1=C(C(=NN1)C)CC2=C(C3=C(S2)N(C(=O)N(C3=O)C)CC(C)C)C(=O)N4C[C@@H](CO4)O + O=C(c1cc(Cc2n[nH]c(=O)c3ccccc23)ccc1F)N1CCN(C(=O)C2CC2)CC1 [Olaparib] (partner 8 µM)
Method in brief: (§1)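 A single step with final 0.05% Triton X-100, 1% formaldehyde and 1 ug/ml Hoechst fixed the cells and stained nuclei 5 days after treatment. Lung cancer cell lines in 1536-well plates had been treated by pin tool the day after seeding with one drug alone or a fixed anchor-drug dose plus five library-drug doses (not always all listed) in √10 steps, and nuclei were counted on 4× images. Relative viability is the ratio of nuclei in treated wells to nuclei in vehicle wells, taken as the median of duplicate plates.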

[2] = compound: CC1=C(C(=NN1)C)CC2=C(C3=C(S2)N(C(=O)N(C3=O)C)CC(C)C)C(=O)N4C[C@@H](CO4)O + N=C(N)NC(=N)NCCc1ccccc1 [Phenformin] (partner 250 µM)
Method in brief: as §1

[3] = compound: CC1=C(C(=NN1)C)CC2=C(C3=C(S2)N(C(=O)N(C3=O)C)CC(C)C)C(=O)N4C[C@@H](CO4)O + COc1cccc2cc(-c3nc([C@H]4CC[C@H](C(=O)O)CC4)n4ncnc(N)c34)[nH]c12 [OSI-027] (partner 0.5 µM)
Method in brief: as §1

IDH-C35 + Luminespib = compound: Cc1ccccc1C(C(=O)NC1CCCCC1)N(C(=O)Cn1ccnc1C)c1cccc(F)c1 [IDH-C35] + CCNC(=O)c1noc(-c2cc(C(C)C)c(O)cc2O)c1-c1ccc(CN2CCOCC2)cc1 [Luminespib] (partner 0.01 µM)
Method in brief: as §1

UMC-11
relative viability ([1]; first compound 0.0025 µM): 0.386 | relative viability ([1]; first compound 0.007906 µM): 0.358 | relative viability ([1]; first compound 0.025 µM): 0.383 | relative viability ([1]; first compound 0.07906 µM): 0.456 | relative viability ([1]; first compound 0.25 µM): 0.957 | relative viability ([2]; first compound 0.0025 µM): 0.168 | relative viability ([2]; first compound 0.007906 µM): 0.195 | relative viability ([2]; first compound 0.025 µM): 0.156 | relative viability ([2]; first compound 0.07906 µM): 0.17 | relative viability ([2]; first compound 0.25 µM): 0.188 | relative viability ([3]; first compound 0.0025 µM): 0.494 | relative viability ([3]; first compound 0.007906 µM): 0.473 | relative viability ([3]; first compound 0.025 µM): 0.468 | relative viability ([3]; first compound 0.07906 µM): 0.549 | relative viability ([3]; first compound 0.25 µM): 0.572 | relative viability (IDH-C35 + Luminespib; first compound 0.08 µM): 1.01 | relative viability (IDH-C35 + Luminespib; first compound 0.253 µM): 1.03 | relative viability (IDH-C35 + Luminespib; first compound 0.8 µM): 1.02 | relative viability (IDH-C35 + Luminespib; first compound 2.53 µM): 1.08 | relative viability (IDH-C35 + Luminespib; first compound 8 µM): 1.01
